From patent US9128087B2, “Nuclear receptor assay” (PamGene B.V., priority 2006, dated 2015) come the findings set out here.

The test has as its target T1, PPAR gamma (Homo sapiens, UniProt P37231).
T1 construct: were incubated with GST-tagged PPAR gamma LBD domain (Invitrogen); purchased Invitrogen
T1 sequence (P37231 238-503 limits assumed): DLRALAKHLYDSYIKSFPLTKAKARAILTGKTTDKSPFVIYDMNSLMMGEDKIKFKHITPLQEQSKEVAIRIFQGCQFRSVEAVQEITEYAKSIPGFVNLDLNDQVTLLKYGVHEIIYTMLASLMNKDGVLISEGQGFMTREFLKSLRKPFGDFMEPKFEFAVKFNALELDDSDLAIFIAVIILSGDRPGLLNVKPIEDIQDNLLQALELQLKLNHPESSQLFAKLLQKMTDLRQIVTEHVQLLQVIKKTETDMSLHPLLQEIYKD
As to the kind of experiment: PamChip microarray binding of PPAR gamma LBD to 48 co-regulator derived peptides. In kind it is biochemical. The note with it: 1E-3.7 M ligand compared to array without ligand. On the procedure:
A microarray set-up was prepared comprising 48 peptides immobilized, i.e., a set of 48 co-regulator-derived motifs corresponding to SEQ ID NOs 1, 3-13, 15-46, and 50-53. In this experiment each peptide was present once on the array and at a single peptide concentration (1E-1 M spotting concentration). Preparation of these chips was as described in Example 1. Twelve wells of a 96 well plate (FIG. 2A(a)), each well comprising the same peptide microarray, were incubated with GST-tagged PPAR gamma LBD domain (Invitrogen), and 11 different concentrations of ligand and 1 control (absence of ligand). […]
FIG. 2A(b) represents the top view of a row of wells in a 96-well plate (FIG. 2A(a)), showing the fluorescence results obtained for the PAR gamma interaction, induced by GW1929, with a the 48 peptide motives. A magnification is shown of the fluorescence image of the microarray incubated with the highest concentration (1E-3.7 M) of GW1929. […] However, when the effect of GW1929 is read out on peptide 45 (SEQ ID NO. 45), derived from PPRB (PPAR binding protein), this ligand is characterized as a binding agonist. […] As said, for all peptides an EC50 value could be determined, but in FIG. 3 only the values that could be determined accurately (regression coefficient of the fit better than 0.7) are represented.

For GW1929, the “binding of PPAR gamma to peptide 31 (SEQ ID NO. 31, NCOR1)” value is on record as “decreased binding” and the “binding of PPAR gamma to peptide 45 (SEQ ID NO. 45, PPRB)” value is recorded as “increase binding”.
